Tests used:
[1] = tested on: HeLa cells; test: Influence on DNA synthesis of cells, incorporation of [3H]-methylthymidine; assay type: cell-based, human; conditions: for incorporation ratio of [3H]-methylthymidine into the human cancer cells to the control: HeLa, 0.1% FCS, 24 hours
Procedure: The influence of each oligo on DNA synthesis of cells was examined by observing the incorporation of [^3H]-methylthymidine into cells. Specifically, the cells were cultured for 24 hours in the same manner as described above, and then the culture solution was exchanged with a culture solution containing each oligo at a concentration of 5, 10 or 20 μM and 0.1% FCS. After 18 hours, 1 μCi/mL [^3H]-methylthymidine was added to the culture solution, and the cells were cultured for another 6 hours. After culture, the specific radioactivity of the cells after predetermined treatment was determined with a liquid scintillation counter.

[2] = tested on: HeLa cells; test: Induction of cell death of human cancer cells, microscopy and Giemsa staining; assay type: cell-based; conditions: 20 μM
Procedure: Further, the induction of cell death of the human cancer cells by the oligo 3 was examined. Specifically, 3,000 HeLa cells were seeded in a slide chamber. After culture for 24 hours, the culture solution was exchanged with a culture solution containing the oligo 3 at a concentration of 20 μM. […] Furthermore, 24 hours after addition of the oligo 3, the cells were washed with phosphate buffered saline (PBS) and then subjected to Giemsa staining to determine the numbers of living cells and dead cells, and the survival ratio of the cells (%) was determined from the obtained numbers of the cells. Here, the oligo 5 was used additionally as a control.

[3] = Toxicity in mice after intravenous administration (body weight, symptoms); assay type: in vivo; conditions: female mice, 20 μg per g of the body weight
Procedure: The toxicity of the oligo 3 was examined. Specifically, the oligo 3 was dissolved in a physiological saline so as to have a concentration of 1 mg/mL and administered intravenously into female mice (5-week-old) in a dose of 20 μg per g of the body weight. On the day of administration (Day 0) and 2, 5, 10, 12 and 14 days after the administration, the weight of each mouse was determined.
FIG. 6 is a graph showing the influence of the oligo 3 on increase of the body weight of the mouse in the case of intravenous administration in a dose of 20 μg/(body weight) g. In the graph, each datum is shown in mean±SE. Here, the data were obtained by using 7 mice for the oligo 3 and 6 mice for the control, respectively.

[4] = tested on: HeLa cells; test: Influence on growth of HeLa human cancer cells, modified MTT method (WST-1 + 1-methoxy PMS); assay type: cell-based
Procedure: The influence of each oligo on cell growth was examined. Specifically, HeLa cells, which are human cancer cells in a DMEM medium containing 10% heat-inactivated fetal calf serum (FCS), were seeded at a density of 1500 cells/well in a 96-well plate. After culture for 24 hours, the culture solution was exchanged with a culture solution containing each oligo at a concentration of 10 μM and 1% FCS. The cells were cultured at 37° C. in the presence of CO2. Thereafter, the ratio of living cells [survival ratio of cells (%)] was examined over 4 days at 24-hour intervals (absorbance: 450 to 650 nm) by a modified MTT method (WST-1+1-methoxy PMS) using a cell counting kit (manufactured by DOJINDO). Here, a culture solution exchanged with a culture solution not containing any oligo was used as a control (this applies hereinafter).
Then, an experiment was conducted in a similar manner, setting the concentration of the oligo 3 in the culture solutions at 2.5, 5, 10 and 20 μM respectively, to examine the relationship between the inhibition of growth of human cancer cells and the concentration.

oligo 3: phosphorothioate antisense DNA oligonucleotide CCTCA, to positions 47-51 of 7SL RNA of SRP (SEQ ID NO: 1) (DNA, all phosphorothioate, methylation of C not given here)
incorporation of [3H]-methylthymidine into the cells, compared among oligos 1 to 5 ([1]; HeLa, 5, 10 or 20 μM): suppressed to the lowest level | incorporation ratio of [3H]-methylthymidine into the human cancer cells to the control ([1]; oligo 5 μM): 57.5% | incorporation ratio of [3H]-methylthymidine into the human cancer cells to the control ([1]; oligo 10 μM): 32.0% | incorporation ratio of [3H]-methylthymidine into the human cancer cells to the control ([1]; oligo 20 μM): 16.6% | survival ratio of the cells (living vs dead cells, Giemsa staining) ([2]; 24 hours after addition): 30.8% | microscopic observation of cultured cells ([2]; about 18 hours after addition): a process of from shrinkage of cells to cell death was observed | generation of symptoms versus control [3]: not recognized | toxicity [3]: does not exhibit toxicity particularly | influence on increase of the body weight versus control ([3]; Day 0 to 14): no difference between the oligo 3 and the control | inhibitory effect on growth of the human cancer cells, compared among oligos 1 to 5 ([4]; HeLa, 10 μM, over 4 days): highest inhibitory effect | concentration dependence of inhibition of growth of human cancer cells ([4]; HeLa, 2.5, 5, 10 and 20 μM): increased in proportion to the concentration | survival ratio of the cells to the control ([4]; HeLa, concentration series 2.5, 5, 10 and 20 μM (concentration of these values not given), Day 1): 44.4% | survival ratio of the cells to the control ([4]; HeLa, concentration series 2.5, 5, 10 and 20 μM (concentration of these values not given), Day 2): 45.1% | survival ratio of the cells to the control ([4]; HeLa, concentration series 2.5, 5, 10 and 20 μM (concentration of these values not given), Day 3): 55.5% | survival ratio of the cells to the control ([4]; HeLa, concentration series 2.5, 5, 10 and 20 μM (concentration of these values not given), Day 4): 63.8% | survival ratio of the cells to the control ([4]; HeLa, oligo 10 μM, 1% FCS, Day 1): 49.6% | survival ratio of the cells to the control ([4]; HeLa, oligo 10 μM, 1% FCS, Day 2): 62.7% | survival ratio of the cells to the control ([4]; HeLa, oligo 10 μM, 1% FCS, Day 3): 71.6% | survival ratio of the cells to the control ([4]; HeLa, oligo 10 μM, 1% FCS, Day 4): 71.1%

Source: patent US7393951B2, “Antisense oligonucleotide having anticancerous activity” (Good Will Okinawa Co., Ltd., priority 2004, dated 2008)
